These results are taken from ChEMBL document CHEMBL5385852, “Structural optimization and biological evaluation of 1-adamantylcarbonyl-4-phenylpiperazine derivatives as FXR agonists for NAFLD” (Eur J Med Chem, 2023).

The source made the active and inactive calls. No cut-off for these calls is given here.

Assay [1] concerns the target T1, Bile acid receptor (Homo sapiens, UniProt Q96RI1).
T1 sequence (Q96RI1 whole entry): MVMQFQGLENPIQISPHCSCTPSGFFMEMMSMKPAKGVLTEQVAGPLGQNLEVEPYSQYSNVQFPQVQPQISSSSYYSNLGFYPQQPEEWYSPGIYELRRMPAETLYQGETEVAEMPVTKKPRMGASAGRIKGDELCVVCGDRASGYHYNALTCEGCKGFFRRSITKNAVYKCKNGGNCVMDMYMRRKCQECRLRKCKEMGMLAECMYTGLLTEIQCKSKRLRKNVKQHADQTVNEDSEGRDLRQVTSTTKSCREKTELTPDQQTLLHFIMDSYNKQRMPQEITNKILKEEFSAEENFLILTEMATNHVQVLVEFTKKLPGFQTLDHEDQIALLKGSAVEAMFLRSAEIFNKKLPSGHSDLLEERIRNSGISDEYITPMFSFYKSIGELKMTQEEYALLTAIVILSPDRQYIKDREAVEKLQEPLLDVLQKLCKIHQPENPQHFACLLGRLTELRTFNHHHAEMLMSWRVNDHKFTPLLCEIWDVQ
Kind of assay: Agonist activity at Gal4-fused FXR LBD (unknown origin) transfected in HEK293T cells co-transfected with Peak12-Gal4UAS-luciferase reporter assessed as receptor transactivation incubated for 24 hrs by firefly luciferase assay. It counts as cell-based.

In assay [2] the test system is Mus musculus. As to the kind of experiment: Anti-hyperlipidemic activity in high fat diet induced obese C57BL/6J mouse model assessed as improvement in insulin sensitivity at 200 mg/kg by insulin tolerance test. It counts as functional, organism-based.
For assay [3], the system named is Mus musculus. Kind of assay: Anti-hyperlipidemic activity in high fat diet induced obese C57BL/6J mouse model assessed as decrease in total cholesterol level at 200 mg/kg. It counts as functional, organism-based.
Assay [4] concerns Mus musculus. As to the kind of experiment: Anti-hyperlipidemic activity in high fat diet induced obese C57BL/6J mouse model assessed as decrease in hepatic low density lipoprotein cholesterol level at 200 mg/kg. It counts as functional, organism-based.
Assay [5] has as its system Mus musculus. Kind of assay: Anti-hyperlipidemic activity in high fat diet induced obese C57BL/6J mouse model assessed as decrease in hepatic total cholesterol level at 200 mg/kg. It counts as functional, organism-based.
In assay [6] the test system is Mus musculus. Kind of assay: Anti-hyperlipidemic activity in high fat diet induced obese C57BL/6J mouse model assessed as decrease in hepatic triglyceride level at 200 mg/kg. It counts as functional, organism-based.

Broadly, the EC50 is the concentration needed to bring the measured effect to its halfway point.

Regarding `O=C(N1CCN(c2cc(Cl)ccc2O)CC1)C12CC3CC(CC(C3)C1)C2`, the half-maximal effective concentration (EC50) in assay [1] was found to be 2140 nM.

As to `Cc1ccc(Cl)cc1N1CCN(C(=O)C23CC4CC(CC(C4)C2)C3)CC1`, the outcome in assay [2], in assay [3], in assay [4] and in assay [5] was inactive. For the same compound, the result in assay [6] was Active.
